# Test results from US8834938B2, “Use of arsenic for cancer therapy protection” (Board of Regents of the University of Texas System, priority 2011, dated 2014).
# Counter-ions that a name gives are not always drawn. Like-named read-outs stand apart in the source and are kept apart here. Starred links: 1 amine or outer side, 2 acyl side, 3 side chain; linkers in the order of their positions; H or OH if unused. Positions of bridges follow the written chain, without caps; N, C: chain ends. Non-standard residues stand in square brackets, D forms with d. Residues, ends and D or L forms follow the SMILES beside them. Chains are numbered I, II in the order given. Actinocin(9to1) = Cc1c2oc3c(C)ccc(C(=O)[*:1])c3nc-2c(C(=O)[*:2])c(N)c1=O; NMeV = CN[C@H](C(=O)O)C(C)C; Sar = CNCC(=O)O
# How the values were obtained:
# [1] = test system: small intestine and bone marrow cells; details: mouse, in vivo
# [2] = test system: Human lung carcinoma cells A549; assay type: in vivo, mice
# [3] = test system: Human breast carcinoma cells, MDA-MB-231; assay type: in vivo, mice
# [4] = test system: Human colon carcinoma cells, SW-480; assay type: in vivo, mice
# [5] = test system: small intestine and bone marrow cells; details: mouse, in vivo; remark: listed apart in the source
# [6] = in vivo; cited from earlier work
# [7] = oral; cited from earlier work
# [8] = in vivo; cited from earlier work; remark: listed apart in the source
# [9] = in vivo; cited from earlier work; remark: listed apart in the source
# [10] = in vivo, cited from earlier work
# [11] = in vivo; cited from earlier work; remark: listed apart in the source
# [12] = oral, 30 mg/m^2 to 100 mg/m^2; cited from earlier work
# multiple myeloma = details: oral administration; cited from earlier work
# [13] = cited from earlier work
# [14] = cited from earlier work; remark: listed apart in the source
# [15] = test system: chronic myelogenous leukemia; details: previously untreated chronic myelogenous leukemia; cited from earlier work
# certain animal tumors = details: in vivo; cited from earlier work
# [16] = mice; cited from earlier work
# [17] = patients with creatinine clearance >35 mL per minute; cited from earlier work
# [18] = 10 mg daily over 2 to 3 hours IV; cited from earlier work
# p53 [19] = assay type: cell-based, human
# [20] = mouse, in vivo
# [21] = design: species or system mice; details: mouse, in vivo
# Heart = details: mouse, in vivo
# [22] = mouse, in vivo; remark: listed apart in the source
# [23] = mouse, in vivo; remark: listed apart in the source
# [24] = test system: human adult foreskin keratinocytes; details: cited from earlier work
# Lung = details: mouse, in vivo
# p53 [25] = assay: C57BL/6 WT vs p53 R172P knock-in mice, protection by arsenic; assay type: in vivo; details: in contrast with wild type littermates
# [26] = mouse, in vivo; remark: listed apart in the source
# p53 [27] = assay: p53 response to irradiation in peripheral blood lymphocytes after arsenic removal; assay type: in vivo, Mice
# Experimental: We next used mice to examine arsenic-mediated modulation of p53 activity in vivo. To this end, we used peripheral blood lymphocytes to monitor the p53 response to irradiation. Mice were fed with water containing arsenic for 3 days. Whole blood was collected from the animals 1, 3, 5, 7, 9, or 11 days after arsenic removal. Lymphocytes were isolated by using the Ficoll method. The cells were cultured for 24 h, then irradiated at a dose of 2 Gy and harvested 3 hours post-treatment. Western analysis was performed. Consistent with the results from cell-based studies, p53 activation by radiation recovered, albeit with a slightly slower kinetics, after arsenic was removed. Radiation-induced p53 accumulation and p21 expression were suppressed at 0 and 1 day […], partially recovered at day 7 and completely back to the untreated level at day 9.
# [28] = design: species or system mice; details: mouse, in vivo; remark: listed apart in the source
# p53 [29] = assay type: cell-based
# [30] = 5FU 30 mg/kg i.v. daily for one week
# [31] = after arsenic removal, 3 days arsenic water
compound,measurement,setting,value
"O=c1[nH]cc(F)c(=O)[nH]1 [5FU, Fluorouracil]",Bone marrow cellularity,[1],Bone marrow cell exhaustion
same,Damage to the small intestine,[1],severe damages
same,Tumor volume response,[2]; 5FU 30 mg/kg intravenous daily for one week,marked tumor regression
same,Tumor volume response,[3]; [30],marked tumor regression
same,Tumor volume response,[4]; [30],marked tumor regression
same,Damage to small intestine and bone marrow cells,[5],severe damages
"Cc1c2oc3c(C)ccc(C(=O)N[C@@H]4C(=O)N[C@H](C(C)C)C(=O)N5CCC[C@H]5C(=O)N(C)CC(=O)N(C)[C@@H](C(C)C)C(=O)O[C@@H]4C)c3nc-2c(C(=O)N[C@@H]2C(=O)N[C@H](C(C)C)C(=O)N3CCC[C@H]3C(=O)N(C)CC(=O)N(C)[C@@H](C(C)C)C(=O)O[C@@H]2C)c(N)c1=O [Actinomycin D] (I: T[dV]P[Sar][NMeV] / II: T[dV]P[Sar][NMeV]; ester I:1-I:C, II:1-II:C; linker I:N-II:N via Actinocin(9to1))",Blood-brain barrier passage,[6],does not pass the blood-brain barrier
same,Dose excreted intact into the bile,[6],Half of the dose
same,Dose excreted intact into the urine,[6],10%
same,Half-life,[6],about 36 hr
"O=C(O)CCCc1ccc(N(CCCl)CCCl)cc1 [Chlorambucil, 4-(bis(2-chlorethyl)amino)benzenebutanoic acid]",Absorption from the gastrointestinal tract,[7],rapidly and completely absorbed
N.N.[Cl][Pt][Cl] [Cisplatin],Oral absorption,[8],not absorbed orally
"O.O=P1(N(CCCl)CCCl)NCCCO1 (centres unmarked) [Cyclophosphamide, 2H-1,3,2-Oxazaphosphorin-2-amine, N,N-bis(2-chloroethyl)tetrahydro-, 2-oxide, monohydrate]",Stability in the gastrointestinal tract,[9],stable in the gastrointestinal tract
"COc1cccc2c1C(=O)c1c(O)c3c(c(O)c1C2=O)C[C@@](O)(C(C)=O)C[C@@H]3O[C@H]1C[C@H](N)[C@H](O)[C@H](C)O1 [Daunorubicin, 5,12-Naphthacenedione, (8S-cis)-8-acetyl-10-(3-amino-2,3,6-trideoxy-a-L-lyxo-hexanopyranosyl)oxy)-7,8,9,10-tetrahydro-6,8,11-trihydroxy-10-methoxy hydrochloride]",Oral absorption,[10]; po,poor
same,Half-life of elimination,[10],about 19 hr
"COc1cccc2c1C(=O)c1c(O)c3c(c(O)c1C2=O)C[C@@](O)(C(=O)CO)C[C@@H]3O[C@H]1C[C@H](N)[C@H](O)[C@H](C)O1 [Doxorubicin, 5,12-Naphthacenedione, (8s-cis)-10-((3-amino-2,3,6-trideoxy-a-L-lyxo-hexopyranosyl)oxy)-7,8,9,10-tetrahydro-6,8,11-trihydroxy-8-(hydroxyacetyl)-1-methoxy-hydrochloride]",Absorption,[11],absorbed poorly
same,Elimination half-life,[11],about 30 hr
same,Excreted into the urine,[11],a few percent
"O=NN(CCCl)C(=O)NC1CCCCC1 [Lomustine, 1-(2-chloro-ethyl)-3-cyclohexyl-1 nitrosourea]",Radioactivity excreted as degradation products within 24 hours,[12],about half
"N[C@@H](Cc1ccc(N(CCCl)CCCl)cc1)C(=O)O [Melphalan, 4-(bis(2-chloroethyl)amino)-L-phenylalanine]",Patients showing a favorable response,multiple myeloma,one third to one half
CO[C@@]12[C@H](COC(N)=O)C3=C(C(=O)C(C)=C(N)C3=O)N1C[C@@H]1N[C@@H]12 [Mitomycin],Time required to reduce the serum concentration by 50%,[13]; 30 mg bolus injection,17 min
same,Dose excreted unchanged in the urine,[13]; in vivo,Approximately 10%
CC[C@]1(O)C[C@@H]2CN(CCc3c([nH]c4ccccc34)[C@@](C(=O)OC)(c3cc4c(cc3OC)N(C)[C@H]3[C@@](O)(C(=O)OC)[C@H](OC(C)=O)[C@]5(CC)C=CCN6CC[C@]43[C@@H]65)C2)C1 [Vinblastine],Absorption after oral administration,[14]; in vivo,Unpredictable absorption
same,Dose recovered in the feces after biliary excretion,[14]; in vivo,about 10%
same,Plasma protein binding,[14]; in vivo,bind to plasma proteins
same,Plasma half-life after distribution (first),[14]; intravenous injection,approximately 1 hours
same,Plasma half-life after distribution (second),[14]; intravenous injection,~72000 s
same,Peak concentration in plasma,[14]; usual clinical doses,approximately 0.4 mM
CC[C@]1(O)C[C@H]2CN(CCc3c([nH]c4ccccc34)[C@@](C(=O)OC)(c3cc4c(cc3OC)N(C=O)[C@H]3[C@@](O)(C(=O)OC)[C@H](OC(C)=O)[C@]5(CC)C=CCN6CC[C@]43[C@@H]65)C2)C1 [Vincristine],Absorption after oral administration,[14]; in vivo,Unpredictable absorption
same,Plasma protein binding,[14]; in vivo,bind to plasma proteins
same,Terminal half-life,[14]; plasma,about 24 hours
"CS(=O)(=O)OCCCCOS(C)(=O)=O [busulfan, 1,4-butanediol dimethanesulfonate]",Adults obtaining hematologic remission,[15],Approximately 90%
COc1cccc2c1C(=O)c1c(O)c3c(c(O)c1C2=O)C[C@@](O)([C@H](C)O)C[C@@H]3O[C@H]1C[C@H](N)[C@H](O)[C@H](C)O1 [daunorubicinol],Half-life of active metabolite,[10],about 27 hr
N[C@H](Cc1ccc(N(CCCl)CCCl)cc1)C(=O)O [medphalan],Activity against certain animal tumors relative to L-isomer,certain animal tumors,less active
Bleomycin,Concentration in hematopoietic tissue,[16],low concentrations
same,"Concentration in skin, lungs, kidneys, peritoneum, and lymphatics",[16],high concentrations
same,Serum or plasma terminal elimination half-life,[17],approximately 115 minutes
arsenic (III) oxide [Arsenic Trioxide],Plasma arsenic mean peak level,[18],6.85 µmol/L
same,t1/2α,[18],53.4 ± 17.4 min
same,t1/2β,[18],12.13 ± 3.31 h
sodium arsenite,Time after arsenic removal until p53 activation almost completely recovered,p53 [19],7 days
same,Time in arsenic-free media until radiation-induced p53 activation detectable,p53 [19],5 days
same,5FU-induced body weight loss with arsenic pretreatment,[20],almost completely prevented
same,Duration of pretreatment adequate for optimal protection,[21],3 days
same,Protection with 1 and 2 days pretreatment,[21],less than 3-day pretreatment
same,Protection with pretreatments longer than 3-day,[21],no further increase of benefits
same,"Grade of Damage, Heart",Heart,Zero
same,5FU damage to the small intestine with arsenic pretreatment,[1],significantly ameliorated
same,5FU-induced decrease of bone marrow cellularity with arsenic pretreatment,[1],considerably alleviated
same,Body weight change,[22],little loss of body weight
same,Therapy-induced body weight loss with arsenic pretreatment,[22],effectively prevented
same,Effect of arsenic pretreatment on 5FU-induced tumor suppression,"[2]; mouse, in vivo",little effect
same,Effect of arsenic pretreatment on irradiation-induced tumor suppression,"[2]; mouse, in vivo",little effect
same,Effect on growth of the implant tumors,"[2]; mouse, in vivo",did not have any detectable effect
same,Effect of arsenic pretreatment on 5FU-induced tumor suppression,"[3]; mouse, in vivo",little effect
same,5FU-induced body weight loss with arsenic pretreatment,[23],almost completely prevented
same,Body weight change,[23],little loss of body weight
same,Concentration resulting in induced proliferation with enhanced NF-κB and AP-1 activity,[24],≤ 5 µM
same,Concentration with statistically significant decrease of cell viability,[24],≥ 10 µM
same,"Grade of Damage, Lung",Lung,Zero
same,Effect of arsenic pretreatment on 5FU-induced tumor suppression,"[4]; mouse, in vivo",little effect
same,Effect on growth of the implanted tumors,"[4]; mouse, in vivo",did not have any detectable effect
same,Protection against toxicity in p53 mutant mice,p53 [25],little protection
same,Damage to small intestine and bone marrow cells with arsenic pretreatment,[5],significantly inhibited
same,Dose showing very clear toxicity by itself,[26],> 3500 μg/kg body weight
same,Radiation-induced p53 accumulation and p21 expression,"p53 [27]; 0 and 1 day, lymphocytes irradiated 2 Gy ex vivo",suppressed
same,Day of complete return to untreated level of p53 accumulation and p21 expression,p53 [27]; [31],9 days
same,Day of partial recovery of radiation-induced p53 accumulation and p21 expression,p53 [27]; [31],7 days
same,p53-dependent tissue damages induced by 5FU treatment,[28],significantly blunted
same,Effect on Hdm2 and p53 distribution,p53 [29],upregulation of Hdm2 and accumulation of p53 in the cytoplasm
same,p53 response to genotoxic stress,p53 [29],impaired p53 activation and apoptosis
